Values after ≈ are worked out from the molar mass of the structure shown. “Also recorded” adds a separate entry of the source. Like-named read-outs stand apart in the source and are kept apart here.
Assays:
Cytotoxicity assay (MTT) = format: cell-based; settings: human, Huh7it-1 cells, mean ± SD of triplicate
Method: The cytotoxicity analysis was assessed using MTT assay 3-(4,5-Dimethylthiazol-2-Yl)-2,5-Diphenyltetrazolium Bromide. Solutions with extract concentrations of 1000, 400, 100, 50, 10, 1and […] were added onto Huh7it-1 cells in 96 well plates. After 46 h incubation, the medium was removed and 150 μl/well of 10% MTT was added then incubated for 4 h. The purple precipitates were then dissolved in dimethyl sulfoxide (DMSO). The purple solution was measured for UV absorbance using a microplate reader at 560 nm. SPSS probit was used to calculate the cytotoxic concentration 50% (CC50).

HCV JFH1a = assay: Antiviral activity assay (HCV infection of Huh7it-1 cells, titre by immunostaining); format: cell-based, hepatitis C virus (genotype 2a); settings: for IC50: Hepatitis C virus, read-out: IC50 (anti-HCV activity); for Anti-HCV activity in words: highest concentration examined 50 μg/ml
Method: Hepatocyte cells of Huh7it-1 [18] were cultivated in DMEM-Dulbeco’s Modiffied Eagle Medium (GIBCO Invitrogen). The medium was supplemented with 10% Fetal Bovine Serum (FBS, GIBCO-Invitrogen), 0.15 mg/ml kanamycin solution (SIGMA) and 1x Non-Essential Amino Acids (NEAA, GIBCO-Invitrogen). The cell culture was incubated in 5% CO2 at 37 °C. HCV JFH1a was propagated in Huh7it-1 suspended in 4 ml JFH1 suspension and 4 ml DMEM and was incubated at 37 °C in 5% CO2 for 4 h. The suspension was divided into eight flasks and the supernatant was harvested on the third day. The supernatant was concentrated and examined for its viral titration and stored at − 80 °C [10].
The hepatocyte cells of Huh7it-1 were seeded on a 48 well plate with a cell density of 5.4 × 10^4 and incubated for 24 h. […] The supernatant was removed and washed with medium and placed back into solutions containing the same concentrations of extract. The cultures were then incubated for 48 h and the supernatant was taken to examine the titer infection of the sample by immunostaining.
(§1) Viral titration was performed by serially diluting the culture supernatant in DMEM medium and inoculating onto Huh7it-1 cells. After incubation for 41 h, the cells were fixed by 3.7% formaldehyde and permeabilized with 0.5% triton X-100 for 10 min. First antibody (HCV infected serum patient) was used in 1% bovine serum albumin (BSA) /2%BlockIce/ phosphate buffer saline (PBS) with a 300x dilution then incubated for 60 min. Second antibody (HRP-Goat anti human) was used in 1%BSA/2%BlockIce/PBS with a 400x dilution (50 μl/well) and then incubated for 60 min at room temperature. To visualize the infectious foci, 3,3′-diaminobenzidine (DAB) staining (DAB Thermo Scientific, USA) was used for 15 min until a brown color was observed. SPSS probit was used to calculate inhibition concentration 50% (IC50) values.

[1] = tested on: murine leukemia P-388 cells; design: method as in PMID 34498963; settings: cited from earlier work
[2] = tested on: N-formylmethionylleucylphenylalanine-induced superoxide production; design: method as in PMID 17822293; settings: cited from earlier work
brine shrimp larvae = tested on: brine shrimp larvae; design: method as in PMID 19483341; settings: cited from earlier work
HCV NS3 protein = assay: Immunoblotting of HCV NS3 protein in infected Huh7it cells; format: cell-based, hepatitis C virus; settings: Huh7it-HCV infected cells MOI 0.5, various concentrations, 48 h
Method: Huh7it-1 cells were lysed with Ripa buffer and the amount of protein was checked using a bichincronic acid (BCA) assay kit. The proteins were separated in (sodium dodecyl sulfate polyacrylamide gel electrophoresis (SDS-PAGE) gel and transferred onto a PVDF membrane (Millipore, Bed-ford, MA, USA). Five percent skimmed milk was added to block non-specific binding and incubated for 60 min. First antibody, HCV NS3-specific mouse monoclonal antibody (clone H23; Abcam, Cambridge, MA, USA) and glyceraldehyde-3-phosphate dehydrogenase (GAPDH) antibody (MBL) was added and incubated for 1 h. The 0.05% PBST was used for membrane washing. Second antibody, HRP-conjugated goat anti mouse immunoglobulin (MBL) was incubated for 1 h and the respective protein was visualized using Clarity Western ECL substrate (Biorad). The chemical luminescence was detected using ImageQuant LAS 4000 (GE healthcare).
Culture of Huh7it-HCV infected cells (MOI = 0.5) was treated with various concentration of compounds. After 48 h of incubation, cells were subjected to western blot analysis using monoclonal antibody against HCV NS3 protein. GAPDH served as an internal control

[3] = tested on: HCV life cycle (entry / post-entry); assay: Time-of-addition experiment; format: cell-based; settings: 25 μg/ml; for inhibition at 25 µg/mL: Hepatitis C virus, mean ± SD of triplicate; for Mode of action: time of addition
Method: A time addition experiment was performed to analyze the effect of the extract on the HCV life cycle. Entry inhibition was conducted by treated cells with extracts during viral inoculation to evaluate the inhibition in binding, entry and endocytosis. Post entry inhibition was conducted by treating cells with the extracts after viral inoculation. Supernatants were collected and viral titration and immunostaining was used to assess the mode of action.
as §1

[4] = Huh7it-1 cells, HCV JFH1a MOI 0.1, 48 h, mean ± SD of triplicate
[5] = read-out: % Inhibition During inoculation
[6] = read-out: % Inhibition During+Post inoculation
[7] = read-out: % Inhibition Post inoculation

Compound	CC50 at 46 h (Cytotoxicity assay (MTT)) [µg/mL]	IC50 (HCV JFH1a; [4]) [µg/mL]	Anti-HCV activity in words (HCV JFH1a; Huh7it-1 cells)	IC50 (HCV JFH1a; 48 h) [µg/mL]	IC50 against murine leukemia P-388 cells [1] [µg/mL]	IC50 [2] [µM]	LD50 towards brine shrimp larvae (brine shrimp larvae) [µg/mL]	HCV NS3 protein level (western blot) (HCV NS3 protein)	HCV NS3 protein level (western blot) (HCV NS3 protein; listed as N-methylflidersine)	HCV NS3 protein level (western blot) (HCV NS3 protein; listed as N-methylflindersin)	inhibition at 25 µg/mL [3, 5] [%]	inhibition at 25 µg/mL [3, 6] [%]	inhibition at 25 µg/mL [3, 7] [%]	Mode of action [3]
COc1cc(O)c(C(C)=O)c2c1C=CC(C)(C)O2 [Alloevodionol]	> 1000	41.1 ± 3.1 (≈ 166 µM)	less active; also recorded: moderate inhibition	–	–	–	–	–	–	–	–	–	–	–
COc1cc2oc(=O)ccc2c2c1C=CC(C)(C)O2 [Alloxanthoxyletin]	93 ± 3 (≈ 360 µM)	21.7 ± 2.2 (≈ 84.1 µM)	–	–	–	–	–	–	–	–	–	–	–	–
COc1c2ccoc2c(OC)c2oc(=O)ccc12 [Isopimpinellin]	> 1000	–	less active; also recorded: did not reveal anti-HCV activities	> 50	–	–	–	–	–	–	–	–	–	–
COc1cc2c(c(OC)c1C(C)=O)C=CC(C)(C)O2 [Methylevodionol]	310 ± 2.5 (≈ 1180 µM)	–	less active; also recorded: did not reveal anti-HCV activities	> 50	11.98 (≈ 45.7 µM)	–	–	–	–	–	–	–	–	–
Cn1c(=O)c2c(c3ccccc31)OC(C)(C)C=C2 [N-methylflindersine]	97 ± 3.3 (≈ 402 µM)	3.8 ± 2.7 (≈ 15.7 µM)	–	–	21.06 (≈ 87.3 µM)	< 12	1.39	HCV NS3 protein reduction	decreased level of HCV NS3 protein expression	decreased HCV NS3 protein level	7.7 ± 1.8	83 ± 0.8	84.1 ± 2.9	inhibit HCV in the post-entry step; also recorded: Post-entry inhibition
COc1c2c(c3c(c1C(C)=O)OC(C)(C)C=C3)OC(C)(C)C=C2 [O-methyloktadrenolon]	63 ± 2.3 (≈ 200 µM)	10.9 ± 1.2 (≈ 34.7 µM)	–	–	–	–	–	decreased HCV NS3 protein level	–	–	9.1 ± 8.5	98.4 ± 0.4	98 ± 0.9	inhibit HCV in the post-entry step; also recorded: Post-entry inhibition
